Source: patent US9381173B2, “Isolated stereoisomeric forms of (S)2-N(3-O-(propan 2-Ol)-1-propyl-4-hydroxybenzene)-3-phenylpropylamide” (Novaremed Ltd., priority 2011, dated 2016)

Columns and labels:
[1] = test system: tail flick model for nociceptive pain in mice; experiment: Tail flick test for nociceptive pain; format: in vivo; details: for Mean latency time Post-treatment: 30 minutes after administration; for Mean latency time Pre-treatment: baseline a day before
Protocol: In the present study the analgesic effect of the substantially pure enantiomers E1 and E2 was evaluated using the tail flick model for nociceptive pain in mice.
The experiment was performed using male ICR strain 7 weeks old mice (25-27 g) (supplied by Harlan Israel, Ltd.)
Response to pain was assessed using the tail flick method which utilizes an Ugo Basile tail flick instrument. The animal is placed and held gently on the Ugo Basile tail flick (TF) instrument surface with the tail straight back and above a photoelectric cell that served as heat source. The heat source and timer are turned on by a foot pedal press, and automatically switch off when the animal flicks its tail off the emitter. Latency is measured and analyzed as an analgesic effect.
Description of the Study: The baseline tail flick was measured a day before the experiment started. On the day of the experiment, animal body weights were first measured followed by the IP administration of the test items (vehicle, morphine, NRD 13 S E1 and E2). 30 minutes after administration of the test items, the animals were subjected to the tail-flick testing. The tail-flick experiments were followed by blood sampling of all groups. The experiment was terminated after spinal cords and brains of all groups have been collected.
Statistics and Data Evaluation: All parameters are represented as means and standard error of the mean (SEM). Data was analyzed using a two tailed, unpaired T-test to compare each treatment group to the Vehicle treated animals. A two-tailed, paired T-test was used to compare the pre-treatment and post-treatment of each treatment group. Probability values p<0.01 and p<0.05 are considered significant.

[2] = Body weight in the Chung model study; format: in vivo, rats; details: for Mean group body weight Day 14: before first administration; for Mean group body weight Day 7: before treatment; for Mean group body weight Baseline: study day -1, before surgery and treatment
Protocol: Body Weights: Body weight was measured at regular intervals on study days −1 for baseline values and seven days after the surgery (study day 7).

BLK = BLK (Homo sapiens, UniProt P51451); experiment: BLK mobility-shift kinase assay (Caliper LabChip 3000); format: biochemical; details: 5 concentrations, duplicate wells; listed as (S,S) enantiomer
Protocol: (§1) Each compound and concentration was tested in duplicate wells.
(§2) Data points are the averages of duplicate wells. Error bars represent the mean±replicate % activity.

Lyn A = Lyn A (Homo sapiens, UniProt P07948); experiment: Lyn A mobility-shift kinase assay (Caliper LabChip 3000); format: biochemical; details: 5 concentrations, duplicate wells; listed as (S,S) enantiomer
Protocol: as §1, §2

Lyn B = Lyn B (Homo sapiens, UniProt P07948); experiment: Lyn B mobility-shift kinase assay (Caliper LabChip 3000); format: biochemical; details: 5 concentrations, duplicate wells; listed as (S,S) enantiomer
Protocol: as §1, §2

Chain of Lyn A (P07948 whole entry, species assumed): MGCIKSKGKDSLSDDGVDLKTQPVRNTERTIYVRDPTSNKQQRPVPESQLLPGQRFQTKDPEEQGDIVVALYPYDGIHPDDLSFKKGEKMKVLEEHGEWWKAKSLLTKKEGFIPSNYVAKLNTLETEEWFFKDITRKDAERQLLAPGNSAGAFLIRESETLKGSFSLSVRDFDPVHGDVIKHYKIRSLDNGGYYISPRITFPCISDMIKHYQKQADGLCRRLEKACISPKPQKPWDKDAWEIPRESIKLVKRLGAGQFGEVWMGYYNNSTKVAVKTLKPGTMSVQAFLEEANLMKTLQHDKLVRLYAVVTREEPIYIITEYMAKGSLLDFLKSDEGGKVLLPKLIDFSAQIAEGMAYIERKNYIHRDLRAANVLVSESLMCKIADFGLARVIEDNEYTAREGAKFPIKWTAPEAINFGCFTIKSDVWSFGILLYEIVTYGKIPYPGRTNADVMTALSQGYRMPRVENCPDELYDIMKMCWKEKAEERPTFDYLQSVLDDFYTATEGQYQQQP
Chain of Lyn B (P07948 1-491 isoform P07948-2, species assumed): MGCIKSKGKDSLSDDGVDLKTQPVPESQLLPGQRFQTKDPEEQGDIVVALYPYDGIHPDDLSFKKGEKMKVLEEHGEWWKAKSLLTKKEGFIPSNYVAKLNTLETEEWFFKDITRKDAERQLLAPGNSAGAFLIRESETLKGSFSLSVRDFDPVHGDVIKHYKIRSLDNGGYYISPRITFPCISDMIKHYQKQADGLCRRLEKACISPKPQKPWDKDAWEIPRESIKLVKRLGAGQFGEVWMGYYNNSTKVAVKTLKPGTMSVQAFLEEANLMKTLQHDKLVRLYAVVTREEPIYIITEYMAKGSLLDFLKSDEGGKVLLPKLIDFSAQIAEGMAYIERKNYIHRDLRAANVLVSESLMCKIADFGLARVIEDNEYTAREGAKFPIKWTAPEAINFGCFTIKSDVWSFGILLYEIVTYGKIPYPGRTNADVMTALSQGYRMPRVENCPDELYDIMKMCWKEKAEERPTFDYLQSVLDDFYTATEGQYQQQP
Chain of BLK (P51451 whole entry, species assumed): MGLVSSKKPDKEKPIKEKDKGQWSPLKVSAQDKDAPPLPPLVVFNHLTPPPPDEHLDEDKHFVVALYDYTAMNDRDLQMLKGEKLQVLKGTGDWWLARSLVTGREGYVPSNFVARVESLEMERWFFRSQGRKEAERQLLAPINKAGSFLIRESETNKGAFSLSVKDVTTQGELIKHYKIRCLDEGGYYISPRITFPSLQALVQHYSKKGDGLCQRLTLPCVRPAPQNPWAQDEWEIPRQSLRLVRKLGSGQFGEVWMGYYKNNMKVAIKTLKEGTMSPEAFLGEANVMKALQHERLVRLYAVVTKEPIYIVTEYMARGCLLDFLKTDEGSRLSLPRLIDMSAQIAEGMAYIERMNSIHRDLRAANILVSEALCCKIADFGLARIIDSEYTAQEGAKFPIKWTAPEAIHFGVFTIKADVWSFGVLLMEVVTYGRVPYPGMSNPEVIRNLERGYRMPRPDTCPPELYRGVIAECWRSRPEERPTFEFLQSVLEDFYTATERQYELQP

Which results are given for `CC(O)COCC(Cc1ccc(O)cc1)NC(=O)CCc1ccccc1` (single isomer, unassigned) [E1]?
increase of latency time between pretreatment and post treatment ([1]; 3 mg/kg IP): not statistically significant; reducing pain when compared to the Vehicle ([1]; 3 mg/kg IP): not significantly active in reducing pain; Mean latency time Post-treatment ([1]; 3 mg/kg IP (group 3)): 9.53 ± 0.85 s; Mean latency time Pre-treatment ([1]; 3 mg/kg IP (group 3)): 7.62 ± 0.74 s; Mean latency time Post-treatment ([1]; 10 mg/kg IP (groups 4, 6)): 10.63 ± 0.64 s; Mean latency time Pre-treatment ([1]; 10 mg/kg IP (groups 4, 6)): 8.16 ± 0.39 s; Mean latency time Post-treatment ([1]; 20 mg/kg IP (group 5)): 10.65 ± 0.81 s; Mean latency time Pre-treatment ([1]; 20 mg/kg IP (group 5)): 7.58 ± 0.41 s; conclusion: pain relief activity ([1]; dose of 3 mg/kg): significant pain relief activity only in the calculated difference; conclusion: reducing pain compared to the Vehicle treated group ([1]; doses of 10 mg/kg and 20 mg/kg): active in reducing pain; pain relief activity by difference between pre- and post-treatment latency times vs. Vehicle ([1]; in particular at doses of 10 and 20 mg/kg (p<0.01)): significant pain relief activity; pain analgesic in animal models of pain ([1]; summary statement, listed as (S,S) enantiomer): effective; Mean group body weight Day 14 ([2]; 7.5 mg/kg IP (group 5)): 287.60 ± 5.14 g; Mean group body weight Day 7 ([2]; 7.5 mg/kg IP (group 5)): 258.90 ± 4.41 g; Mean group body weight Baseline ([2]; 7.5 mg/kg IP (group 5)): 245.80 ± 2.54 g; Mean group body weight Day 21 ([2]; 7.5 mg/kg IP once daily from day 14 (group 5)): 303.80 ± 6.26 g; Mean group body weight Day 14 ([2]; 15 mg/kg IP (group 4)): 289.80 ± 3.27 g; Mean group body weight Day 7 ([2]; 15 mg/kg IP (group 4)): 259.20 ± 3.29 g; Mean group body weight Baseline ([2]; 15 mg/kg IP (group 4)): 245.00 ± 2.80 g; Mean group body weight Day 21 ([2]; 15 mg/kg IP once daily from day 14 (group 4)): 298.50 ± 3.27 g; Mean group body weight Day 14 ([2]; 30 mg/kg IP (group 3)): 288.70 ± 5.51 g; Mean group body weight Day 7 ([2]; 30 mg/kg IP (group 3)): 261.20 ± 4.45 g; Mean group body weight Baseline ([2]; 30 mg/kg IP (group 3)): 245.20 ± 3.19 g; Mean group body weight Day 21 ([2]; 30 mg/kg IP once daily from day 14 (group 3)): 303.30 ± 6.01 g; modulation of BLK tyrosine kinase activity (BLK): activated; modulation of LynA tyrosine kinase activity (Lyn A): activated; modulation of LynB tyrosine kinase activity (Lyn B): had no effect
